Results published in patent US20200000840A1, “USE OF CYCLODEXTRINS TO REDUCE ENDOCYTOSIS IN MALIGNANT AND NEURODEGENERATIVE DISORDERS” (priority 2016, published 2020).
Values joined by “and” are separate entries in the source; they are usually repeats but may differ in a detail not shown here. Identical values can stand only once. “Also recorded” adds a separate entry of the source. Like-named read-outs stand apart in the source and are kept apart here. Marks after values point to notes of the source that are not given here.

Experiments:
[1] = tested on: transgenic mouse model of AD; conditions: cited from earlier work
rats [2] = conditions: long-term parenteral administration, 200 mg/kg; cited from earlier work
mice, cats, one human = conditions: cats, and one human; cited from earlier work
leukemia mouse models = conditions: cited from earlier work
rats [3] = conditions: cited from earlier work
BBB = conditions: cited from earlier work; for Transport across BBB: 2 h
cats = conditions: doses of 4-8 g/kg; cited from earlier work
MDA-MB-231 cells = test: Wound healing / gap closure migration assay (CytoSelect CBA-120); assay type: cell-based, human; conditions: treated 2 hours
Experimental: (§1) Published results have shown that β-CD inhibits human MDA-MB 231 cell migration (Guerra et al. 2016). This inhibition was attributed to the ability of β-CD to “deplete cholesterol”. β-CD, however, depletes also phospholipids. […] Cells were cultured in 24-well culture plates (Cytoselect CBA-120, 0.9 mm wound healing/gap closure migration assay) for 24 hours with wound healing insert in place. […] Protocol: Warm up the 24-well plate (CBA-120, Cell BioLabs Inc.) with 0.9 mm CytoSelect Wound Healing Inserts at room temperature for 10 minutes. Using sterile forceps, orient the desired number of inserts in the plate wells with their “wound field” aligned in the same direction. Create a cell suspension containing 0.5-1.0×10^6 cells/ml in media containing 10% fetal bovine serum (FBS). Add 500 μL of cell suspension to each well by carefully inserting the pipette tip through the open end at the top of the insert. For optimal cell dispersion, add 250 μL of cell suspension to either side of the open ends at the top of the insert. Incubate cells in a cell culture incubator for 12-24 hours. Carefully remove the insert from the well to begin the wound healing assay. Use sterile forceps to grab and lift the insert slowly from the plate well. Slowly aspirate and discard the media from the wells. Wash wells with media to remove dead cells and debris. Finally, add media to wells to keep cells hydrated. Repeat wash if wells still have debris or unattached cells. When washing is complete, add media with FBS and/or compounds to continue cell culture and wound healing process. Agents that inhibit or stimulate cell migration can be added directly to the wells. Incubate cells in a cell culture incubator (2 hours) and then wash cells with PBS and then add fresh media without compounds. Incubate 12-24 hours before wash and fixing. Remove the fixation solution and add 400 μL of Cell Stain Solution to each well. Allow the stain to incubate with the cells for 15 minutes at room temperature. Aspirate and discard the solution. Carefully wash each stained well 3× with deionized water. Discard washes and allow cells to dry at room temperature. Cells that migrated into the wounded area or protruded from the border of the wound were visualized and photographed under an inverted microscope. Determine the surface area of the defined wound area: Total Surface Area=0.9 mm x length. Determine the surface area of the migrated cells into the wound area: Migrated Cell Surface Area=length of cell migration (mm)×2 x length. Percent Closure (%)=Migrated Cell Surface Area/Total Surface Area x 100.

MCF-7 cells = test: as above; assay type: cell-based, human; conditions: treated 2 hours
Experimental: as §1

children with NPC = conditions: cited from earlier work
[4] = tested on: MDA-MB 231 and MCF-7 human breast epithelial cell lines; test: Wound healing assay, overall statements for both cell lines; assay type: cell-based; conditions: 1-4 mM
Experimental: as §1

human keratinocytes = conditions: cited from earlier work
[5] = cited from earlier work
renal cancer cells = conditions: triple combination treatment, mice implanted with renal cancer cells; cited from earlier work
[6] = in vivo; cited from earlier work
rats [7] = conditions: rat, in vivo; cited from earlier work
[8] = Table 2; cited from earlier work
human erythrocytes = conditions: cited from earlier work
[9] = parenteral administration; cited from earlier work
[10] = cited from earlier work; remark: listed apart in the source
rats [11] = conditions: 1.000 g/kg daily; cited from earlier work
rats [12] = conditions: cited from earlier work; remark: listed apart in the source
rats [13] = conditions: rat, in vivo, cited from earlier work
erythrocytes = conditions: cited from earlier work
[14] = cyclosporine eye-drops; cited from earlier work
animal studies = conditions: cited from earlier work
transferrin endocytosis = conditions: 10 mM; cited from earlier work
[15] = parenteral delivery; cited from earlier work

Question: With `CC(O)COC[C@H]1O[C@@H]2O[C@H]3[C@H](O)[C@@H](O)[C@@H](O[C@H]4[C@H](O)[C@@H](O)[C@@H](O[C@H]5[C@H](O)[C@@H](O)[C@@H](O[C@H]6[C@H](O)[C@@H](O)[C@@H](O[C@H]7[C@H](O)[C@@H](O)[C@@H](O[C@H]8[C@H](O)[C@@H](O)[C@@H](O[C@H]1[C@H](O)[C@H]2O)O[C@@H]8COCC(C)O)O[C@@H]7COCC(C)O)O[C@@H]6COCC(C)O)O[C@@H]5COCC(C)O)O[C@@H]4COCC(C)O)O[C@@H]3COCC(C)O` (stereo partly drawn) [HPbCD, hydroxypropyl-beta-cyclodextrin] as the compound, how does the neuroprotection [1] read?
Answer: Its neuroprotection is “neuroprotective effects”.

Question: What about the “bone mineral density (BMD)” value (rats [2]) of the same compound?
Answer: The value was “decrease bone mineral density”.

Question: And the hearing loss (mice, cats, one human)?
Answer: The hearing loss was “risk of causing permanent hearing loss”.

Question: What about the survival (leukemia mouse models) of the same compound?
Answer: Its survival is “prolonged survival”.

Question: And the “acute i.v. toxicity in rats” value (rats [3])?
Answer: Its value is 10 g/kg.

Question: And the BBB breakdown (BBB)?
Answer: Its BBB breakdown is 2.5 mM.

Question: And the hearing loss (cats)?
Answer: The hearing loss was “permanent hearing loss”.

Question: What about the average wound closure (MDA-MB-231 cells; 1 mM) of the same compound?
Answer: Its average wound closure is 67.67%.

Question: What about the “wound closure (Percent Closure), replications r1-r3” value (shortened to “wound closure (Percent Closure)”) (MDA-MB-231 cells; 1 mM) of the same compound?
Answer: Its value is 62.00% and 68.00% and 73.00%.

Question: And the average wound closure (MDA-MB-231 cells; 2 mM)?
Answer: Its average wound closure is 56.00%.

Question: And the “wound closure (Percent Closure)” value (MDA-MB-231 cells; 2 mM)?
Answer: Its value is 48.00% and 59.00% and 61.00%.

Question: And the average wound closure (MDA-MB-231 cells; 4 mM)?
Answer: The average wound closure was 39.00%.

Question: What about the “wound closure (Percent Closure)” value (MDA-MB-231 cells; 4 mM) of the same compound?
Answer: The value was 48.00% and 44.00% and 25.00%.

Question: And the average wound closure (MCF-7 cells; 1 mM)?
Answer: The average wound closure was 73.33%.

Question: What about the “wound closure (Percent Closure)” value (MCF-7 cells; 1 mM) of the same compound?
Answer: Its value is 68.00% and 74.00% and 78.00%.

Question: What about the average wound closure (MCF-7 cells; 2 mM) of the same compound?
Answer: Its average wound closure is 48.33%.

Question: What about the “wound closure (Percent Closure)” value (MCF-7 cells; 2 mM) of the same compound?
Answer: The value was 41.00% and 48.00% and 56.00%.

Question: And the average wound closure (MCF-7 cells; 4 mM)?
Answer: The average wound closure was 33.67%.

Question: And the “wound closure (Percent Closure)” value (MCF-7 cells; 4 mM)?
Answer: The value was 32.00% and 28.00% and 41.00%.

Question: And the side effects (children with NPC; about 2500 mg/kg bi-weekly, over a year, two children with NPC)?
Answer: Its side effects is “no discernable side effects”.

Question: What about the tolerability (children with NPC; children with NPC, doses of up to 1000 mg/kg/d) of the same compound?
Answer: Its tolerability is “well tolerated”.

Question: What about the hearing (children with NPC; steady state IV doses of 2.5 g/kg bi-weekly for >1 yr) of the same compound?
Answer: Its hearing is “Hearing unaffected despite receiving steady state IV doses of”.

Question: What about the migration versus concentration [4] of the same compound?
Answer: Its migration versus concentration is “migration decreased with higher concentration”.

Question: What about the apoptotic cell death (human keratinocytes) of the same compound?
Answer: The apoptotic cell death was “not apoptotic”.

Question: What about the “oral absorption in rats” value [5] of the same compound?
Answer: The value was at most 3%.

Question: What about the tumor regression (renal cancer cells) of the same compound?
Answer: Its tumor regression is “necessary in triple combination treatment for tumor regression”.

Question: And the “Vol. of distribution (VD)” value [6]?
Answer: Its value is 0.2 L/kg.

Question: What about the “half-life (t1/2)” value [6] of the same compound?
Answer: Its value is 1.7 to 1.9 h.

Question: What about the “toxic effects at 1 g/kg” value (rats [7]) of the same compound?
Answer: Its value is “did not cause adverse clinical signs”.

Question: What about the Solubility in water [8] of the same compound?
Answer: Its Solubility in water is over 600 mg/mL.

Question: Which “tolerance by human erythrocytes” value (human erythrocytes) does the source give for `OC[C@H]1O[C@@H]2O[C@H]3[C@H](O)[C@@H](O)[C@@H](O[C@H]4[C@H](O)[C@@H](O)[C@@H](O[C@H]5[C@H](O)[C@@H](O)[C@@H](O[C@H]6[C@H](O)[C@@H](O)[C@@H](O[C@H]7[C@H](O)[C@@H](O)[C@@H](O[C@H]1[C@H](O)[C@H]2O)O[C@@H]7CO)O[C@@H]6CO)O[C@@H]5CO)O[C@@H]4CO)O[C@@H]3CO` [α-cyclodextrin, alpha-cyclodextrin] here?
Answer: The value was “better then β-CD”.

Question: What about the hemolytic activity (human erythrocytes; human erythrocytes, listed as α-CD) of the same compound?
Answer: The hemolytic activity was “β-CD>α-CD>γ-CD; also recorded: lower than that of both β-CD and HP-β-CD”.

Question: And the renal toxicity [9]?
Answer: The renal toxicity was “showed renal toxicity”.

Question: What about the “i.v. toxicity, 1 g daily” value [10] of the same compound?
Answer: Its value is 1 died after 2 d.

Question: And the “nephrosis, 1, 2, 3, 4, or 7 daily doses s.c.” value (rats [11])?
Answer: The value was 1.000 severe nephrosis.

Question: What about the “nephrosis, single dose s.c.” value (rats [12]; 0.100 g/kg) of the same compound?
Answer: The value was 0.100 no changes.

Question: And the “nephrosis, single dose s.c.” value (rats [12]; 1.000 g/kg)?
Answer: Its value is 1.000 changes seen.

Question: What about the “acute i.v. toxicity in rats” value (rats [3]) of the same compound?
Answer: Its value is 0.5 to 0.8 g/kg.

Question: And the “Transport across BBB” value (BBB; 0.5 mM)?
Answer: The value was 21.5%.

Question: What about the “Transport across BBB” value (BBB; 1 mM) of the same compound?
Answer: The value was 16.5%.

Question: And the BBB breakdown (BBB)?
Answer: The BBB breakdown was 1 mM.

Question: What about the “toxicity in the BBB model, comparison of CDs” value (BBB) of the same compound?
Answer: The value was “most toxic among the three native CDs”.

Question: What about the “single dose i.v. LD50” value (rats [13]; iv) of the same compound?
Answer: Its value is 0.788/1.008 * g/kg.

Question: And the LD50 (rats [13])?
Answer: The LD50 was 1008 mg/kg.

Question: What about the phospholipids released (erythrocytes; 10 mM) of the same compound?
Answer: The phospholipids released was 30%.

Question: What about the “release of phospholipids on increasing concentration” value (erythrocytes; above 10 mM) of the same compound?
Answer: Its value is “does not increase release of phospholipids”.

Question: And the cholesterol extraction (erythrocytes)?
Answer: The cholesterol extraction was “negligible even at hemolytic concentrations”.

Question: And the tolerability in eye-drops [14]?
Answer: Its tolerability in eye-drops is “well tolerated”.

Question: And the ototoxicity (animal studies)?
Answer: Its ototoxicity is “did not show ototoxicity”.

Question: And the apoptotic cell death (human keratinocytes)?
Answer: Its apoptotic cell death is “not apoptotic”.

Question: What about the “oral absorption in rats” value [5] of the same compound?
Answer: The value was 2-3%.

Question: What about the “reduction of transferrin endocytosis” value (transferrin endocytosis) of the same compound?
Answer: Its value is 20%.

Question: What about the excretion [15] of the same compound?
Answer: The excretion was “excreted almost completely in an intact form into the urine”.

Question: What about the Solubility in water [8] of the same compound?
Answer: Its Solubility in water is 130 to 145 mg/mL.
